21 compounds from PubChem BioAssay AID328 (DTP/NCI, 2004) can be followed below.

The test system of the assay is BDF1 mice, P388 leukemia ip, median survival T/C. Description: NCI In Vivo Anticancer Drug Screen. Data for tumor model P388 Leukemia (intraperitoneal) in B6D2F1 (BDF1) mice. The following applies: endpoint: median survival time, higher = longer survival. The gist of the method:
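Antitumour effect was judged in vivo: survival in drug-treated mice, normalised to that of vehicle-dosed controls, gives the reported T/C.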

The mark [1] stands for this setting: dose: 50.0 mg/kg/injection, schedule: Q01DX009 (ip), vehicle: saline with Tween-80.
The mark [2] stands for this setting: dose: 100.0 mg/kg/injection, schedule: Q01DX009 (ip), vehicle: saline with Tween-80.
Setting [3] is: dose: 200.0 mg/kg/injection, schedule: Q01DX009 (ip), vehicle: saline with Tween-80.
The mark [4] stands for this setting: dose: 400.0 mg/kg/injection, schedule: Q01DX009 (ip), vehicle: saline with Tween-80.
Where [5] appears, read: dose: 25.0 mg/kg/injection, schedule: Q01DX009 (ip), vehicle: saline with Tween-80.
The mark [6] stands for this setting: dose: 100.0 mg/kg/injection, schedule: Q04DX003 (ip), vehicle: saline with Tween-80.
Where [7] appears, read: dose: 200.0 mg/kg/injection, schedule: Q04DX003 (ip), vehicle: saline with Tween-80.
[8] abbreviates: dose: 6.25 mg/kg/injection, schedule: Q01DX009 (ip), vehicle: saline with Tween-80.
Where [9] appears, read: dose: 12.5 mg/kg/injection, schedule: Q01DX009 (ip), vehicle: saline with Tween-80.
Setting [10] is: dose: 400.0 mg/kg/injection, schedule: Q01DX009 (ip), vehicle: water.

Several values for one entry are separate records, joined by “and”; a condition that tells them apart may be missing. Equal entries are not always repeated. Toxic doses and inconclusive results are not listed.

For `COC12CC3(C)C(C4=CC(=O)OC4)CCC3(O)C3CCC4=CC(=O)CCC4(CO1)C32` (stereo not given), the T/C is, setting by setting: (dose: 56.0 mg/kg/injection, schedule: Q01DX010 (ip), vehicle: carboxymethylcellulose (CMC)) 95 % of control; (dose: 112.5 mg/kg/injection, schedule: Q01DX010 (ip), vehicle: carboxymethylcellulose (CMC)) 100 % of control; (dose: 225.0 mg/kg/injection, schedule: Q01DX010 (ip), vehicle: carboxymethylcellulose (CMC)) 90 % of control.

`Sc1ccccc1-n1c(-c2ccccc2)ccc1-c1ccccc1`: the T/C was 101 % of control under setting [1], 88 % of control under setting [2], 87 % of control under setting [3] and 102 % of control under setting [4].

`c1ccc(Nc2n[n+](-c3ccccc3)no2)cc1`: the T/C was 105 % of control under setting [5]; 101 % of control under setting [1]; 101 % of control and 104 % of control under setting [2]; 107 % of control under setting [6]; 88 % of control under setting [3]; 106 % of control under setting [7]. In addition, the T/C (dose: 400.0 mg/kg/injection, schedule: Q04DX003 (ip), vehicle: saline with Tween-80) was 102 % of control.

Consider `CCCCCOc1cc(C(=O)NN)nc(C(=O)NN)c1`, for which the T/C by setting is: (dose: 1.56 mg/kg/injection, schedule: Q01DX009 (ip), vehicle: saline with Tween-80) 103 % of control; (dose: 3.13 mg/kg/injection, schedule: Q01DX009 (ip), vehicle: saline with Tween-80) 111 % of control; under setting [8], 111 % of control; under setting [9], 116 % of control.

Take `COc1ccc(OP2OCC(C)O2)cc1` (stereo not given): the T/C under setting [1] was 103 % of control, the T/C under setting [2] was 102 % of control and the T/C under setting [3] was 102 % of control.

As to `CC(=O)N1C2=CCCC3CCCCC23c2ccccc21` (stereo not given), the T/C by setting is: under setting [1], 88 % of control and 109 % of control; under setting [2], 102 % of control and 104 % of control; under setting [3], 93 % of control; under setting [4], 112 % of control.

On to `CC1(C)N=C(N)N=C(N)N1c1cccc(Cl)c1`, for which the T/C (dose: 1.9 mg/kg/injection, schedule: Q04DX003 (ip), vehicle: saline) is 104 % of control; the T/C (dose: 2.9 mg/kg/injection, schedule: Q04DX003 (ip), vehicle: saline) was 100 % of control; the T/C (dose: 10.0 mg/kg/injection, schedule: Q04DX003 (ip), vehicle: saline) is 113 % of control; the T/C (dose: 18.0 mg/kg/injection, schedule: Q01DX009 (ip), vehicle: saline) was 195 % of control; the T/C (dose: 18.7 mg/kg/injection, schedule: Q01DX009 (ip), vehicle: saline) is 168 % of control; the T/C (dose: 28.0 mg/kg/injection, schedule: Q01DX009 (ip), vehicle: saline) was 160 % of control and 209 % of control. In addition, the T/C is, setting by setting: (dose: 37.5 mg/kg/injection, schedule: Q04DX003 (ip), vehicle: saline) 175 % of control and 177 % of control; (dose: 40.0 mg/kg/injection, schedule: Q01DX009 (ip), vehicle: saline) 95 % of control; (dose: 42.0 mg/kg/injection, schedule: Q01DX009 (ip), vehicle: saline) 213 % of control; (dose: 56.25 mg/kg/injection, schedule: Q04DX003 (ip), vehicle: saline) 150 % of control.

For the compound `Cn1ncc2c(N)c(C#N)c(=O)[nH]c21`, the T/C (dose: 100.0 mg/kg/injection, schedule: Q01DX001 (ip), vehicle: saline with Tween-80) was 114 % of control.

As to `Clc1c(CBr)ccc(CBr)c1Cl`, the T/C is 104 % of control under setting [8]; 100 % of control (dose: 6.25 mg/kg/injection, schedule: Q04DX003 (ip), vehicle: saline sonified); 114 % of control under setting [9]; 90 % of control (dose: 12.5 mg/kg/injection, schedule: Q04DX003 (ip), vehicle: saline sonified); 123 % of control under setting [5]; 90 % of control (dose: 25.0 mg/kg/injection, schedule: Q04DX003 (ip), vehicle: saline sonified).

Consider `CCCC(C(=O)c1ccc(OC)cc1)C(O)(C(F)(F)F)C(F)(F)F` (stereo not given), for which the T/C runs as follows: (dose: 100.0 mg/kg/injection, schedule: Q04DX003 (ip), vehicle: Klucel (hydroxypropylcellulose) (HPC)) 95 % of control; (dose: 200.0 mg/kg/injection, schedule: Q04DX003 (ip), vehicle: Klucel (hydroxypropylcellulose) (HPC)) 100 % of control; (dose: 400.0 mg/kg/injection, schedule: Q04DX003 (ip), vehicle: Klucel (hydroxypropylcellulose) (HPC)) 100 % of control.

For the compound `O=C(O)c1ccccc1NSc1ccccc1[N+](=O)[O-]`, the T/C under setting [1] is 97 % of control, the T/C under setting [2] was 109 % of control and the T/C under setting [3] is 111 % of control.

For `CC(=O)OC1(C)N=NC2(CCCCC2)O1` (stereo not given), the T/C is 102 % of control under setting [1], 98 % of control under setting [2] and 112 % of control under setting [3].

On to `CC(=O)Nc1ccc(S(=O)(=O)F)cc1`, for which the T/C runs as follows: (dose: 50.0 mg/kg/injection, schedule: Q04DX003 (ip), vehicle: saline with Tween-80) 87 % of control; under setting [6], 104 % of control; under setting [7], 100 % of control.

With `O=[N+]([O-])c1ccc(Sc2ccc(Cl)cc2)c2nonc12`, the T/C under setting [1] is 92 % of control.

On to `ClCCOC(OCCCl)OCCCl`, for which the T/C is 113 % of control under setting [5], 109 % of control under setting [1] and 95 % of control under setting [6].

On to `CC1(C)C/C(=C\c2ccccc2)C(=O)c2ccccc21`, for which the T/C runs as follows: (dose: 25.0 mg/kg/injection, schedule: Q01DX009 (ip), vehicle: water) 106 % of control; (dose: 50.0 mg/kg/injection, schedule: Q01DX009 (ip), vehicle: water) 95 % of control; (dose: 100.0 mg/kg/injection, schedule: Q01DX009 (ip), vehicle: water) 106 % of control; (dose: 200.0 mg/kg/injection, schedule: Q01DX009 (ip), vehicle: water) 88 % of control; under setting [10], 100 % of control.

On to `S=C(S)N1CCOCC1`, for which the T/C (dose: 100.0 mg/kg/injection, schedule: Q01DX009 (ip), vehicle: saline) is 91 % of control; the T/C (dose: 100.0 mg/kg/injection, schedule: Q04DX003 (ip), vehicle: saline) is 100 % of control; the T/C (dose: 200.0 mg/kg/injection, schedule: Q01DX009 (ip), vehicle: saline) was 100 % of control; the T/C (dose: 200.0 mg/kg/injection, schedule: Q04DX003 (ip), vehicle: saline) is 95 % of control; the T/C (dose: 400.0 mg/kg/injection, schedule: Q01DX009 (ip), vehicle: saline) was 95 % of control; the T/C (dose: 400.0 mg/kg/injection, schedule: Q04DX003 (ip), vehicle: saline) was 86 % of control.

As for `O=NN1CCCNC1=O`, the T/C was 245 % of control (dose: 66.0 mg/kg/injection, schedule: Q04DX003 (ip), vehicle: saline with Tween-80) and 116 % of control under setting [6].

As to `[N-]=[N+]=CC(=O)NCC(=O)NO`, the T/C (dose: 180.0 mg/kg/injection, schedule: Q01DX009 (ip), vehicle: water) was 172 % of control; the T/C (dose: 270.0 mg/kg/injection, schedule: Q01DX009 (ip), vehicle: water) was 172 % of control; the T/C under setting [10] is 204 % of control.

On to `N=C(N)SCc1cccc([N+](=O)[O-])c1`, for which the T/C was 97 % of control (dose: 12.5 mg/kg/injection, schedule: Q01DX009 (ip), vehicle: Klucel (hydroxypropylcellulose) (HPC)); 103 % of control (dose: 25.0 mg/kg/injection, schedule: Q01DX009 (ip), vehicle: Klucel (hydroxypropylcellulose) (HPC)); 110 % of control (dose: 50.0 mg/kg/injection, schedule: Q01DX009 (ip), vehicle: Klucel (hydroxypropylcellulose) (HPC)).

For the compound `COB(CCCCB(OC)OC)OC`, the T/C by setting is: (dose: 100.0 mg/kg/injection, schedule: Q04DX003 (ip), vehicle: saline sonified) 90 % of control; (dose: 200.0 mg/kg/injection, schedule: Q04DX003 (ip), vehicle: saline sonified) 86 % of control; (dose: 400.0 mg/kg/injection, schedule: Q04DX003 (ip), vehicle: saline sonified) 100 % of control.
